Experimental data reported in US12492173B2, “Herbicidal substituted N-tetrazolyl aryl carboxamides” (Bayer Aktiengesellschaft, priority 2019, dated 2025).

How the values were obtained:
Assay type in all cases: in vivo
Setaria viridis = experiment: Pre-emergence herbicidal action, SETVI; conditions: dosage 320 g/ha, scored visually after 3 weeks vs untreated controls (100% = plants have died)
Procedure, shortened: (§1)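 Seeds sown in sandy loam in pots and covered with soil; compounds formulated as WP or EC were sprayed onto the soil surface as aqueous suspension/emulsion at 600 to 800 l/ha water with 0.2% wetting agent. Greenhouse growth; visual damage scored after 3 weeks versus untreated controls (100% = plants died, 0% = like control).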

Veronica persica = experiment: Post-emergence herbicidal action, VERPE; parameters: key: % herbicidal action vs untreated; 100 = plants died, 0 = like control
Procedure, shortened: (§2)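 WP or EC formulations, diluted in water at 600 to 800 l/ha with 0.2% wetting agent, are sprayed onto green parts of one-leaf-stage plants grown in sandy loam. Visual assessment of percent damage relative to untreated controls follows after approximately 3 weeks in the greenhouse.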

Lolium multiflorum [1] = experiment: Post-emergence herbicidal action, LOLMU; parameters: key: % herbicidal action: 100 = plants died, 0 = like control
Procedure, shortened: as §2

Cyperus esculentus = experiment: Post-emergence herbicidal action, CYPES; parameters: key: % herbicidal action vs untreated; 100 = plants died, 0 = like control
Procedure, shortened: as §2

Pharbitis purpurea = experiment: Pre-emergence herbicidal action, PHBPU; conditions: dosage 320 g/ha, scored visually after 3 weeks vs untreated controls (100% = plants have died)
Procedure, shortened: as §1

Lolium multiflorum [2] = experiment: Pre-emergence herbicidal action, LOLMU; conditions: dosage 320 g/ha, scored visually after 3 weeks vs untreated controls (100% = plants have died)
Description: 1. Pre-Emergence Herbicidal Action Against Harmful Plants Seeds of monocotyledonous and dicotyledonous weed plants and crop plants are laid out in sandy loam soil in wood-fiber pots and covered with soil. The compounds of the invention, formulated in the form of wettable powders (WP) or as emulsion concentrates (EC), are then applied to the surface of the covering soil in the form of an aqueous suspension or emulsion at a water application rate equating to 600 to 800 l/ha, with addition of 0.2% wetting agent. After the treatment, the pots are placed in a greenhouse and kept under good growth conditions for the trial plants. The damage to the test plants is scored visually after a test period of 3 weeks by comparison with untreated controls (herbicidal activity in percent (%): 100% activity=the plants have died, 0% activity=like control plants). […] The tables below illustrate, in an exemplary manner, the […] herbicidal action of the compounds according to the invention, the herbicidal activity being stated in percent. [table] In the experiments that follow, herbicidal action of numerous inventive compounds and the known compounds that are structurally closest from D1 (WO 2012/028579 A1) and D2 (WO 2018/202535 A1) were compared under the above-specified conditions by the pre-emergence and post-emergence method. The example numbers given in the tables relate to the compounds disclosed in the respective documents. In addition to the compounds disclosed in D1 and D2, the following compounds V-1 to V-14 that are encompassed by D1 or D2 but are not compounds specified therein were used in the comparative experiments: • V-1: 2-(methylsulfanyl)-3-(methylsulfinyl)-N-(1-methyl-1H-tetrazol-5-yl)-4-(trifluoromethyl)benzamide • V-2: 2-(methylsulfanyl)-3-(methylsulfonyl)-N-(1-methyl-1H-tetrazol-5-yl)-4-(trifluoromethyl)benzamide • V-3: 2,3-bis(ethylsulfanyl)-N-(1-methyl-1H-tetrazol-5-yl)-4-(trifluoromethyl)benzamide • V-4: 2-chloro-3-(ethylsulfanyl)-N-(1-methyl-1H-tetrazol-5-yl)-4-(trifluoromethyl)benzamide • V-5: 2-chloro-4-iodo-3-(methylsulfanyl)-N-(1-methyl-1H-tetrazol-5-yl)benzamide • V-6: 2-chloro-4-iodo-3-(methylsulfinyl)-N-(1-methyl-1H-tetrazol-5-yl)benzamide • V-7: 2-chloro-4-iodo-3-(methylsulfonyl)-N-(1-methyl-1H-tetrazol-5-yl)benzamide • V-8: 2-bromo-3-(methylsulfanyl)-N-(1-methyl-1H-tetrazol-5-yl)-4-(trifluoromethyl)benzamide • V-9: 2-bromo-3-(methylsulfinyl)-N-(1-methyl-1H-tetrazol-5-yl)-4-(trifluoromethyl)benzamide • V-10: 2-bromo-3-(methylsulfonyl)-N-(1-methyl-1H-tetrazol-5-yl)-4-(trifluoromethyl)benzamide • V-11: 2-bromo-3-(ethylsulfanyl)-N-(1-methyl-1H-tetrazol-5-yl)-4-(trifluoromethyl)benzamide • V-12: 2-bromo-3-(ethylsulfinyl)-N-(1-methyl-1H-tetrazol-5-yl)-4-(trifluoromethyl)benzamide • V-13: 2-bromo-3-(ethylsulfonyl)-N-(1-methyl-1-1H-tetrazol-5-yl)-4-(trifluoromethyl)benzamide • V-14: 2-cyclopropyl-3-(ethylsulfanyl)-N-(1-methyl-1H-tetrazol-5-yl)-4-(trifluoromethyl)benzamide Herbicidal Pre-Emergence Action: […]

Row | SMILES | herbicidal activity SETVI (Setaria viridis) [%] | herbicidal action VERPE (Veronica persica; Dosage 80 g/ha) | herbicidal activity PHBPU (Pharbitis purpurea) [%] | also measured
1 | Cc1c(C(=O)Nc2nnnn2C)ccc(C(F)(F)F)c1CS(C)(=O)=O [Example 1-85] | 100 | 100 |  | herbicidal action LOLMU (Lolium multiflorum [1]; Dosage 80 g/ha): 80; herbicidal action CYPES (Cyperus esculentus; Dosage 80 g/ha): 80
2 | CCSCc1c(C(F)(F)F)ccc(C(=O)Nc2nnnn2C)c1C [Example 1-86] | 100 |  | 80 | herbicidal action VERPE (Veronica persica; post-emergence, dosage 80 g/ha): 90%; herbicidal action CYPES (Cyperus esculentus; post-emergence, dosage 80 g/ha): 80%
3 | CSCc1c(C(F)F)ccc(C(=O)Nc2nnnn2C)c1C [Example 1-107, 4-(difluoromethyl)-2-methyl-3-[(methylsulfanyl)methyl]-N-(1-methyl-1H-tetrazol-5-yl)benzamide] | 100 | 100 | 90 | 
4 | Cc1c(C(=O)Nc2nnnn2C)ccc(C(F)F)c1CS(C)(=O)=O [Example 1-109] | 100 | 100 | 80 | herbicidal action CYPES (Cyperus esculentus; Dosage 80 g/ha): 80
5 | CSCc1c(C(F)(F)F)ccc(C(=O)Nc2nnnn2C)c1SC [Example 1-161] | 100 | 100 |  | herbicidal activity LOLMU (Lolium multiflorum [2]): 90%; herbicidal action CYPES (Cyperus esculentus; Dosage 80 g/ha): 80
6 | CCSCc1c(C(F)F)ccc(C(=O)Nc2nnnn2C)c1SCC [Example 1-191] | 100 | 100 |  | herbicidal activity LOLMU (Lolium multiflorum [2]): 80%
7 | CSCc1c(C(F)(F)F)ccc(C(=O)Nc2nnnn2C)c1F [Example 1-242] | 100 | 100 |  | herbicidal action CYPES (Cyperus esculentus; Dosage 80 g/ha): 80
8 | Cn1nnnc1NC(=O)c1ccc(C(F)(F)F)c(C[S+](C)[O-])c1F (stereo not shown) [Example 1-243] | 100 | 100 | 80 | 
9 | Cn1nnnc1NC(=O)c1ccc(C(F)(F)F)c(CS(C)(=O)=O)c1F [Example 1-244] | 100 | 100 | 90 | 
10 | Cc1ccc(C(=O)Nc2nnnn2C)c(Cl)c1CS(C)(=O)=O [Example 1-289] | 90 | 100 |  | 
11 | CCS(=O)(=O)Cc1c(C(F)(F)F)ccc(C(=O)Nc2nnnn2C)c1Cl [Example 1-301] | 100 | 100 | 100 | 
12 | C=CCSCc1c(C(F)(F)F)ccc(C(=O)Nc2nnnn2C)c1Cl [Example 1-308] | 100 |  | 100 | herbicidal action VERPE (Veronica persica; post-emergence, dosage 80 g/ha): 80%; herbicidal action CYPES (Cyperus esculentus; post-emergence, dosage 80 g/ha): 90%
13 | Cn1nnnc1NC(=O)c1ccc(C(F)(F)F)c(CS(C)(=O)=O)c1Br [Example 1-382, 2-bromo-3-[(methylsulfonyl)methyl]-N-(1-methyl-1H-tetrazol-5-yl)-4-(trifluoromethyl)benzamide] | 100 | 100 |  | 
14 | Cn1nnnc1NC(=O)c1ccc(Cl)c(CS(C)(=O)=O)c1Cl [Example 1-561] | 100 | 100 |  | herbicidal activity LOLMU (Lolium multiflorum [2]): 80%; herbicidal action CYPES (Cyperus esculentus; Dosage 80 g/ha): 80
15 | CCn1nnnc1NC(=O)c1ccc(S(C)(=O)=O)c(CS(C)(=O)=O)c1C [Example 2-39] |  | 100 |  | herbicidal action CYPES (Cyperus esculentus; Dosage 80 g/ha): 80
16 | CCn1nnnc1NC(=O)c1ccc(C(F)F)c(CSC)c1C [Example 2-107] | 100 | 100 |  | 
17 | CCn1nnnc1NC(=O)c1ccc(C(F)(F)F)c(C[S+](C)[O-])c1OC (stereo not shown) [Example 2-135] | 100 | 100 |  | 
18 | CCn1nnnc1NC(=O)c1ccc(C(F)(F)F)c(CS(C)(=O)=O)c1OC [Example 2-136] | 80 | 100 |  | 

Row | SMILES | herbicidal activity SETVI (Setaria viridis) [%] | herbicidal action VERPE (Veronica persica; Dosage 80 g/ha) | herbicidal activity PHBPU (Pharbitis purpurea) [%] | also measured
19 | CCn1nnnc1NC(=O)c1ccc(C(F)(F)F)c(CSC)c1SC [Example 2-161] | 100 |  |  | herbicidal action VERPE (Veronica persica; post-emergence, dosage 80 g/ha): 100%; herbicidal activity LOLMU (Lolium multiflorum [2]): 80%; herbicidal action CYPES (Cyperus esculentus; post-emergence, dosage 80 g/ha): 80%
20 | CCn1nnnc1NC(=O)c1ccc(C(F)(F)F)c(CS(C)(=O)=O)c1SC [Example 2-163] | 100 | 100 | 90 | 
21 | CCn1nnnc1NC(=O)c1ccc(C)c(CSC)c1Cl [Example 2-287] | 90 | 80 |  | 
22 | CCn1nnnc1NC(=O)c1ccc(C(F)(F)F)c(CSC)c1Br [Example 2-380] | 100 |  | 80 | herbicidal action VERPE (Veronica persica; post-emergence, dosage 80 g/ha): 100%; herbicidal action LOLMU (Lolium multiflorum [1]; post-emergence, dosage 80 g/ha): 80%
23 | CCn1nnnc1NC(=O)c1ccc(C(F)(F)F)c(CS(C)(=O)=O)c1Br [Example 2-382] | 100 | 100 |  | herbicidal activity LOLMU (Lolium multiflorum [2]): 80%
24 | CCCn1nnnc1NC(=O)c1ccc(C(F)(F)F)c(CS(=O)(=O)CC)c1C [Example 3-88] | 100 | 90 | 90 | 
25 | CCCn1nnnc1NC(=O)c1ccc(C(F)F)c(CSC)c1C [Example 3-107] | 100 | 100 |  | 
26 | CCCn1nnnc1NC(=O)c1ccc(C(F)(F)F)c(CSC)c1OC [Example 3-134] | 100 | 100 |  | 
27 | CCCn1nnnc1NC(=O)c1ccc(C(F)(F)F)c(CS(C)(=O)=O)c1OC [Example 3-136] | 100 | 100 |  | 
28 | CCCn1nnnc1NC(=O)c1ccc(C(F)(F)F)c(CSC)c1Cl [Example 3-296] | 100 | 100 |  | herbicidal activity LOLMU (Lolium multiflorum [2]): 80%
29 | CCCn1nnnc1NC(=O)c1ccc(C(F)(F)F)c(C[S+](C)[O-])c1Cl (stereo not shown) [Example 3-297] | 100 |  | 80 | herbicidal action VERPE (Veronica persica; post-emergence, dosage 80 g/ha): 100%; herbicidal action CYPES (Cyperus esculentus; post-emergence, dosage 80 g/ha): 80%
30 | CCCn1nnnc1NC(=O)c1ccc(C(F)(F)F)c(CSCC)c1Cl [Example 3-299] | 100 | 100 |  | herbicidal activity LOLMU (Lolium multiflorum [2]): 90%
31 | CCCn1nnnc1NC(=O)c1ccc(C(F)F)c(CSC)c1Cl [Example 3-320] | 100 | 100 |  | 
32 | CCCn1nnnc1NC(=O)c1ccc(C(F)F)c(C[S+]([O-])CC)c1Cl (stereo not shown) [Example 3-324] | 100 |  | 90 | herbicidal action CYPES (Cyperus esculentus; Dosage 80 g/ha): 90
33 | CCCn1nnnc1NC(=O)c1ccc(C(F)(F)F)c(CSC)c1Br [Example 3-380] | 100 | 80 | 90 | 
34 | CCCn1nnnc1NC(=O)c1ccc(C(F)(F)F)c(C[S+](C)[O-])c1Br (stereo not shown) [Example 3-381] | 90 |  |  | herbicidal action VERPE (Veronica persica; post-emergence, dosage 80 g/ha): 100%; herbicidal action CYPES (Cyperus esculentus; post-emergence, dosage 80 g/ha): 90%
35 | CCCn1nnnc1NC(=O)c1ccc(C(F)(F)F)c(CSCC)c1Br [Example 3-383] | 100 | 100 |  | herbicidal activity LOLMU (Lolium multiflorum [2]): 80%
36 | CCCn1nnnc1NC(=O)c1ccc(C(F)(F)F)c(CS(=O)(=O)CC)c1Br [Example 3-385] | 100 | 100 |  | herbicidal activity LOLMU (Lolium multiflorum [2]): 90%
